Reference: patent publication US12097262B2, “mTORC1 inhibitors” (THE REGENTS OF THE UNIVERSITY OF CALIFORNIA, priority 2014, dated 2024)

What was measured:
SNU-398 = assay: Cell viability assay (CellTiter-Glo), SNU-398; format: cell-based, human; conditions: Homo sapiens; for EC50: 72 h after compound treatment
Protocol: (§1) The cells were grown in appropriate medium (vender recommended) supplemented with 10% heat-inactivated fetal bovine serum (FBS), in tissue culture dishes placed in a humidified incubator maintained at 37° C. in an atmosphere of 5% CO2 and 95% air.
(§2) Cell viability assay. Cells were seeded in a 96-multiwell plate at 3000-4000 cells per well in medium containing FBS and cells were incubated at 37° C. overnight. After 18-20 h, compounds in 10×DMSO solution (n=3) were added to the cells and were incubated for additional 3 days in a humidified incubator in an atmosphere of 5% CO2 and 95% air. After treatment of Cell Titer-Glo® luminescent cell viability assay reagent (Promega Corporation, Madison, WI USA), the luminescence value was recorded using SpectraMax M5 Multi-Mode Microplate Readers (Molecular Devices, LLC, Sunnyvale, CA USA). Concentration response curves were generated on GraphPad Prism (GraphPad Software, La Jolla, CA USA) by calculating the decrease in luminescence values in compound-treated samples relative to the DMSO controls.
(§3) Anti-proliferative effects of compounds were evaluated in human colorectal cancer HCT-15 cells (mutation: KRAS, PIK3CA), human hepatocellular carcinoma SNU-449 (mutation: TP53, CDKN2A), SNU-398 (mutation: CTNNB 1), SNU-182 (mutation: TP53) and renal adenocarcinoma 786-O (mutation: VHL, PTEN, TP53, CDKN2A) in 72 h after compound treatment.

786-O = assay: Cell viability assay (CellTiter-Glo), 786-O; format: cell-based, human; conditions: Homo sapiens; for EC50: 786-0, 72 h after compound treatment
Protocol: as §1, §2, §3

HCT-15 = assay: Cell viability assay (CellTiter-Glo), HCT-15; format: cell-based, human; conditions: Homo sapiens; for EC50: 72 h after compound treatment
Protocol: as §1, §2, §3

SNU-182 = assay: Cell viability assay (CellTiter-Glo), SNU-182; format: cell-based, human; conditions: Homo sapiens; for EC50: 72 h after compound treatment
Protocol: as §1, §2, §3

[1] = test system: mTORC1 and mTORC2 downstream signaling (pS6, p4E-BP1, pAkt S473); assay: Downstream signaling of mTOR by immunoblotting, dose dependence, HCT-15 and SNU-449 cells; format: cell-based, human; conditions: immunoblot at 3 h after compound treatment
Protocol: Downstream signaling of mTOR was tested using an immunoblotting method at 3 h after compound treatment.

[2] = test system: mTORC1 and mTORC2 signaling (pS6, p4E-BP1, pAkt S473); assay: Time-course effects on mTORC1 and mTORC2 signaling in SNU-449; format: cell-based, human; conditions: 0.33-24 h
Protocol: Cellular Signaling Effects of Class mTOR Inhibitors. Cells were seeded in 60 mm cell culture dishes and incubated 1-2 days until 70-90% confluency. Cells were treated with compound solution in DMSO (1000×) and incubated at 37° C. in a 5% CO2 humidified incubator for a given length of time. Whole cell lysates were prepared using RIPA buffer (R^3792) (TEKnova, Hollister, CA USA) with a phosphatase inhibitor cocktail tablet PhosStop and a protease inhibitor cocktail tablet cOmplete Mini (Roche Diagnostics GmbH, Mannheim, Germany). Cell lysates (based on a certain amount of protein determined by Pierce BCA Protein Assay Kit (PI-23225) (Thermo Fisher Scientific Inc., Waltham, MA USA)) were electrophoresed using a Criterion Tris-HCl gel 4-20% (Bio-Rad Laboratories, Hercules, CA USA) and transferred to a nitrocellulose membrane (162-0115) (Bio-Rad Laboratories, Hercules, CA USA). After incubation for more than 1 h with a blocking buffer at room temperature, membranes were labeled with primary antibodies by overnight incubation at 4° C., followed by 1 hour incubation with horseradish peroxidase-conjugated (HRP-conjugated) secondary antibodies at room temperature. The following antibodies were used for immunoblot: phospho-Akt (S473) (#9271), phospho-Akt (T308) (#2965), total-Akt (#9272), phospho-S6 (Ser240/Ser244) (#2215L), S6 ribosomal protein (#2217), phospho-4E-BP1 (T37/T46) (#2855), total 4E-BP1 (#9644) (Cell Signaling Technology, Inc., Danvers, MA USA), FKBP12 (sc-28814) mouse β-actin (sc-8432) (Santa Cruz Biotechnology, Inc., Dallas, Texas USA), anti-rabbit IgG conjugated with horseradish peroxidase (HRP) (#7074), and anti-mouse IgG conjugated with HRP (#7076) (Cell Signaling Technology, Inc., Danvers, MA USA). Nitrocellulose membranes were exposed with SuperSignal® West Pico Chemiluminescent Substrate or Femto Maximum Sensitivity Substrate (Thermo Fisher Scientific Inc., Waltham, MA USA) and signals were recorded on a CL-Xposure film (Thermo Fisher Scientific Inc., Waltham, MA USA).

[3] = test system: phospho-4E-BP1, pS6, phospho-S473 of Akt in 786-O xenograft tumor; assay: Pharmacodynamic study in human renal cancer 786-O xenograft tumor in mice; format: in vivo
Protocol: Pharmacodynamic studies of M1071 in human renal cancer 786-O xenograft tumor in mice. […] Tumor samples were collected at 3 h after drug administration. For the MWF group, M-1071 was administered once daily every other day. At 4 h after the last administration, tumor samples were collected. After the freezing tumor samples, they were homogenized and treated with RIPA buffer containing phosphatase inhibitor and protease inhibitor. The following western blotting analysis were conducted in a similar way to abovementioned method.

[4] = test system: TORC1 and TORC2 outputs (p4E-BP1, pS6); assay: Drug washout experiment in SNU-449 cells; format: cell-based, human; conditions: 30 nM for 3 h, then washout
Protocol: Cellular Signaling Effects of Class mTOR Inhibitors. Cells were seeded in 60 mm cell culture dishes and incubated 1-2 days until 70-90% confluency. Cells were treated with compound solution in DMSO (1000×) and incubated at 37° C. in a 5% CO2 humidified incubator for a given length of time. […] After incubation for more than 1 h with a blocking buffer at room temperature, membranes were labeled with primary antibodies by overnight incubation at 4° C., followed by 1 hour incubation with horseradish peroxidase-conjugated (HRP-conjugated) secondary antibodies at room temperature. […] Nitrocellulose membranes were exposed with SuperSignal® West Pico Chemiluminescent Substrate or Femto Maximum Sensitivity Substrate (Thermo Fisher Scientific Inc., Waltham, MA USA) and signals were recorded on a CL-Xposure film (Thermo Fisher Scientific Inc., Waltham, MA USA).
Drug Washout Experiment. SNU-449 cells were treated with 30 nM of compounds for 3 h. The medium was aspirated out and cells were washed with fresh 10% FBS in RPMI1640 medium. Then, cells were incubated with fresh 10% FBS in RPMI1640 medium at 37° C. for described time period.

mTORC1 and mTORC2 = assay: Western blot analysis of mTORC1/mTORC2 inhibition in MCF-7 cells; format: cell-based; conditions: 4 hours, western blot (FIG. 13A)
Protocol: FIGS. 13A-13B. FIG. 13A: MCF-7 cells were treated for 4 hours with E1035 and M1071 before harvesting. FIG. 13B: SNU-449 cells were treated with 3 hours with E1010 before harvesting. Cells were lysed and blotted for the indicated proteins. M1071 has the narrowest concentration range between mTORC1 and mTORC2 inhibition. The concentration range between mTORC1 and mTORC2 inhibition widens for E1035.
Cell Culture and Western Blot Analysis. Cells were grown in 6-well plates and treated with inhibitor at the indicated concentrations or with vehicle (0.1% DMSO). Treated cells were lysed, and lysates were resolved by SDS-PAGE, transferred to nitrocellulose and blotted. All antibodies were purchased from Cell Signaling Technology.

MCF-7 cells = assay: Cell proliferation assay (CellTiter-Glo, 72 h), MCF-7 cells; format: cell-based; conditions: 72 hours (FIG. 14B)
Protocol: FIGS. 14A-14B. FIG. 14A: 786-O cells were treated for 72 hours with the indicated drugs before cell viability was measured. […] FIG. 14B: MCF-7 cells were treated for 72 hours with the indicated drugs before cell viability was measured.
Cell proliferation assays. Cells grown in 96-well plates were treated with inhibitor in triplicate or vehicle (0.1% DMSO). After 72 h, cell viability was assessed with the […]-GLO® Luminescent Cell Viability Assay (Promega). Cell proliferation curves were generated using Prism.

[5] = Effect on blood glucose level in mice; conditions: mice (n=3), intraperitoneal, 1, 3 mg/kg
Description: Effect on blood glucose level. […] Blood glucose levels (mg/dL) were monitored.

SNU-449 = assay: Cell viability assay (CellTiter-Glo), SNU-449; conditions: Homo sapiens; for EC50: SNU-449, 72 h, read-out: EC50 (nM) SNU-449
Protocol: as §1, §2, §3

[6] = clinical trials; cited from earlier work

## CO[C@H]1C[C@@H]2CC[C@@H](C)[C@@](O)(O2)C(=O)C(=O)N2CCCC[C@H]2C(=O)O[C@H]([C@H](C)C[C@@H]2CC[C@@H](OCCOCc3cn(CCOCCOCCOCCOCCOCCOCCOCCOCCC(=O)NCCCCn4nc(-c5ccc6oc(N)nc6c5)c5c(N)ncnc54)nn3)[C@H](OC)C2)CC(=O)[C@H](C)/C=C(\C)[C@@H](O)[C@@H](OC)C(=O)[C@H](C)C[C@H](C)/C=C/C=C/C=C/1C [Compound M-1071, 40-O-(2-((1-(32-(4-amino-3-(2-aminobenzo[d]oxazol-5-yl)-1H-pyrazolo[3,4-d]pyrimidin-1-yl)-27-oxo-3,6,9,12,15,18,21,24-octaoxa-28-azadotriacontyl)-1H-1,2,3-triazol-4-yl)methoxy)ethyl)-rapamycin]
SNU-398
  EC50: < 10 nM
SNU-398; read-out: % inhibition at 10 μM SNU-398, 10 μM
  inhibition at 10 µM: 50 to 100%
786-O
  EC50: < 10 nM
786-O; 786-0, read-out: % inhibition at 10 μM 786-O, 10 μM
  inhibition at 10 µM: 25 to 50%
HCT-15
  EC50: < 10 nM
HCT-15; read-out: % inhibition at 10 μM HCT-15, 10 μM
  inhibition at 10 µM: 50 to 100%
SNU-182
  EC50: < 10 nM
SNU-182; read-out: % inhibition at 10 μM SNU-182, 10 μM
  inhibition at 10 µM: 25 to 50%
[1]
  mTORC1/2 downstream inhibition (pS6, p4E-BP1 and pAkt S473): stronger inhibition of mTORC1 signaling (pS6 and p4E-BP1) compared to mTORC2 downstream Akt S473 phosphorylation
  p4E-BP1 inhibition: complete p4E-BP1 inhibition at drug concentrations in which pAkt S473 is not inhibited
[2]
  p4E-BP1 inhibition, time course: continuous complete inhibition of TORC1 outputs within 3-24 h
  phosphorylation of Akt S473, time course: transient feedback activation on Akt S473 at 1 and 3 h, and then a slight inhibition was observed at 24 h
[3]; 5 mg/kg
  inhibition of pS6 and p4EBP-1 in tumor: complete inhibition
[3]; highest dosing of 5 mg/kg
  inhibition of phospho-S473 of Akt in tumor: slight
[3]; intraperitoneal
  Phosphorylation of S6 in tumor: inhibited
[3]; intraperitoneal, tumor collected 3 h after administration
  inhibition against phospho-4E-BP1 in tumor: dose dependent inhibition
[4]
  sustained inhibitory effect on p4E-BP1 after washout: at least 2 h
  sustained inhibitory effect on pS6 after washout: at least 4 h
mTORC1 and mTORC2
  concentration range between mTORC1 and mTORC2 inhibition: narrowest
  mTORC2 inhibition: also inhibits mTORC2
MCF-7 cells
  effects on cell proliferation: potent effects on cell proliferation
[5]
  blood glucose level: no increase in blood glucose levels
SNU-449
  EC50: < 10 nM
SNU-449; SNU-449, read-out: % inhibition at 10 μM SNU-449
  inhibition at 10 µM: 25 to 50%

## CC(C)n1nc(-c2ccc3oc(N)nc3c2)c2c(N)ncnc21 [MLN0128, reference compound]
SNU-398
  EC50: 10 to 50 nM
786-O
  EC50: 50 to 100 nM
HCT-15
  EC50: 50 to 100 nM
SNU-182
  EC50: 50 to 100 nM
[1]
  mTORC1/2 downstream inhibition (pS6, p4E-BP1 and pAkt S473): pan-mTORC1/2 downstream inhibition
[2]
  p4E-BP1 inhibition, time course: completely inhibited p4E-BP1 in early onset (0.33-1 h) and then partial phosphorylation of 4E-BP1 was observed after 3 h to 24 h
  phosphorylation of Akt S473, time course: blocked phosphorylation of pAkt S473 continuously during 0.33-24 h
[4]
  time until inhibitory effects disappeared after washout: ≤ 1 h
[6]
  dose limiting toxicity: Grade ≥3 hyperglycemia
SNU-449
  EC50: 10 to 50 nM
